These results are taken from US6071525A, “Whitening cosmetics containing mulberrin” (priority 1997, dated 2000).

The test system of series [1] is tyrosinase. The settings on record: background; cited from earlier work.
Series [2] has as its system skin. The settings on record: background; cited from earlier work.
For series [3], the system named is skin. Conditions: background; cited from earlier work. This is another data set of the same source.
Series [4] concerns B-16 melanoma (ATCC CRL 6323) cell line. Description: Effect for melanin synthesis in melanocytes (B-16 melanoma). The format is cell-based, mouse. Here is the method: As melanocytes, commercially available B-16 melanoma (ATCC CRL 6323) cell line derived from mouse was used. The melanoma cell line was inoculated in DMEM culture medium containing glucose (4.5 g/l), 10% serum and 1% antibiotic agent, and cultivated in a 50 ml T-flask at 37° C. After cultivation under a condition of 5% CO2 for 24 hours, the culture solution was treated with 0.05% trypsin containing 0.02% EDTA to isolate cells, which was then inoculated in a 50 ml T-flask and cultivated for 48 hours. At this time, the number of cells was 5.76×10^6 cells/flask. A diluted solution of mulberrin in DMEM medium at a proper concentration was incorporated to the cultivated melanoma cells, and the mixture was cultivated at 37° C. for 5 days. After finishing cultivation, culture medium was thoroughly removed, and the residue was treated with 1 ml of saline-phosphate buffer solution (PBS) containing 0.02% EDTA and 0.05% trypsin to isolate cells, which were then centrifuged for 5 minutes to collect pure cells. The obtained cells were treated with a solution of 5% trichloroacetate (TCA), stirred, and centrifuged. Precipitated melanin was washed with saline-phosphate buffer solution, and treated with 1N NaOH to dissolve melanin therein. Absorbance at 475 nm was measured. Melanin concentration was determined from standard concentration curve of synthetic melanin (produced by Sigma).

Series [5] has as its target tyrosinase. Description: Tyrosinase inhibition effect (mushroom tyrosinase, tyrosine substrate, absorbance at 475 nm). Conditions: pH 6.8, 37° C., 10 minutes. The format is biochemical.
Protocol: The substrate, tyrosine was used as a solution (0.1 mg/ml) dissolved in 0.05 M sodium phosphate buffer (pH 6.8). […] Then 200 U/ml tyrosinase (0.5 ml) was added thereto, and the reaction performed at the same temperature for 10 minutes. As a control group, buffer solution (0.5 ml) was added instead of the compound. The reaction was quenched by placing the test tube containing the reaction mixture on ice. Absorbance was measured at a wavelength of 475 nm by using a spectrophotometer.
Series [6] relates to skin. Description: Whitening effect (general statement). Conditions: versus Cortex mori, kojic acid, arbutin and Ramulus mori extract.

Entries after “also recorded” stand apart in the source; their conditions may differ. Read-outs that look alike come from different tables or passages of the source.

For `O=C1O[C@H]([C@@H](O)CO)C(O)=C1O` [Ascorbic acid (vitamin C), Ascorbic acid], the “inhibition of tyrosinase (in words)” value in series [1] is listed as “relatively low activity in inhibition of tyrosinase”.

As for `Oc1ccc(O)cc1` [Hydroquinone], the “whitening activity (in words)” value in series [2] is on record as “irreversible whitening activity”. In addition, in series [3], the “carcinogenicity (in words)” value is reported as “recognized as a carcinogen” and the “skin irritation (in words)” value is listed as “irritates the skin strongly”.

Consider `O=c1cc(CO)occ1O` [Kojic acid, kojic acid], for which the “inhibition of tyrosinase (in words)” value in series [1] is “high activity”.

Regarding `CC(C)=CCc1c(-c2ccc(O)cc2O)oc2c(CC=C(C)C)c(O)cc(O)c2c1=O` [Mulberrin, mulberrin], the “inhibition of melanin synthesis (in words)” value in series [4] is “very excellent effect in inhibiting melanin synthesis”; in series [4] (listed as mulberrin) it was “strong whitening agent inhibiting melanin synthesis in melanocytes; also recorded: very strong inhibition effect of melanin synthesis”. In addition, the inhibition at 10 µg/mL in series [4] (Mus musculus, B16, 120 h, mulberrin 10 μg/ml, 5 days, 37° C., read-out: Inhibition ratio of melanin synthesis) stood at 54.4%. For the same molecule, the inhibition at 20 µg/mL in series [4] (Mus musculus, B16, 120 h, mulberrin 20 μg/ml, 5 days, 37° C., read-out: Inhibition ratio of melanin synthesis) amounted to 66.8%. Besides, the inhibition at 50 µg/mL in series [4] (Mus musculus, B16, 120 h, mulberrin 50 μg/ml, 5 days, 37° C., read-out: Inhibition ratio of melanin synthesis) came out at 74.8%. Further, the inhibition at 100 µg/mL in series [4] (Mus musculus, B16, 120 h, mulberrin 100 μg/ml, 5 days, 37° C., read-out: Inhibition ratio of melanin synthesis) turned out to be 89.3%. For the same molecule, the Content of melanin in series [4] (mulberrin 10 μg/ml, 5 days, 37° C.) was determined as 1.95 pg/cell; in series [4] (mulberrin 20 μg/ml, 5 days, 37° C.) it was 1.42 pg/cell; in series [4] (mulberrin 50 μg/ml, 5 days, 37° C.), 1.07 pg/cell; in series [4] (mulberrin 100 μg/ml, 5 days, 37° C.), 0.46 pg/cell. The “IC50 (concentration required for 50% inhibition of tyrosinase activity)” value in series [5] was determined as 0.50 µg/mL. The “whitening effect compared with conventional whitening agents (in words)” value in series [6] is given as “much more intensive whitening effect than conventional whitening agents”.
